Results: patent publication US20030114529A1, “Hydroxamic acid thrombospondin peptide analog that inhibits aggrecanase activity” (priority 2001, published 2003)

Experiments:
[1] = system: aggrecanase-1 (ADAMTS4); experiment: Protection of native aggrecan from cleavage by full length aggrecanase-1 (Western blot, MAB2035); format: biochemical; details: peptide 100 μM, ADAMTS4 5 nM, aggrecan 500 nM, 5 hours, 37° C.
Procedure: An aggrecan binding peptide sequence derived from thrombospondin motif of aggrecanase-1 was tested for its ability to protect aggrecan from degradation by aggrecanase. Full length aggrecanase-1 (ADAMTS4), 5 nM, was incubated with native aggrecan, 500 nM, for 5 hours at 37° C. in the presence of the thrombospondin peptide GGWGPWGPWGDCSRTCGGG, 100 μM (Seq. No. 14). Aggrecan cleavage products were measured by Western blot analysis using the monoclonal antibody MAB2035.

[2] = molecular target: T1, Collagenase MMP-1 (Homo sapiens, UniProt P03956); experiment: Inhibition of collagenase MMP-1 by hydroxamic acids; format: biochemical; details: for Ki: Ki = IC50/(1 + [S]/Km), read-out: Apparent Ki Collagenase MMP-1
T1 sequence (P03956 100-469): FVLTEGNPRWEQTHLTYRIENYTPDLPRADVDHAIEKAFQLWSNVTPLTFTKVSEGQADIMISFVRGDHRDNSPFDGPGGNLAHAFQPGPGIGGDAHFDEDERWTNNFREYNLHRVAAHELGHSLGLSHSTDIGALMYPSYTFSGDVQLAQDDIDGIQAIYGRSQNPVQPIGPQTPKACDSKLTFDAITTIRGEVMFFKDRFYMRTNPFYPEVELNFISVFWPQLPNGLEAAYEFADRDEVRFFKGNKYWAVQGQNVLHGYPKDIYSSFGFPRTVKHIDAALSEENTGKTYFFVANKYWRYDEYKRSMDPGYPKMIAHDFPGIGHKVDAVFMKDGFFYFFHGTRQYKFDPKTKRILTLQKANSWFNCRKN

[3] = system: ADAMTS-4/ADAMTS-5 (aggrecanase); experiment: Inhibition of aggrecan cleavage at Glu1480-Gly1481 by recombinant ADAMTS-4/ADAMTS-5 (Western blot, densitometry); format: biochemical, Human; details: aggrecan 500 nM, enzyme 5 nM, 2 hours, 37° C.; Ki = IC50/(1 + [S]/Km); read-out: Apparent Ki aggrecanase ADAM-TS4/5
Procedure: A series of newly synthesized hydroxamic acids (FIG. 1) were tested for their ability to inhibit recombinant ADAMTS-4/ADAM-TS5 as well a several matrix metalloproteinases (MMPs). In this study aggrecan, at a concentration of 500 nM, was incubated for 2 hours at 37° C. with 5 nM of either ADAMTS-4/ADAM-TS5 in the presence or absence of one of the hydroxamic acids at a concentration range from 0.1 to 1000 nM. Subsequently, the fractions were analysed for cleavage of aggrecan at the Glu^1480-^1481Gly site by Western Blot analysis, using a specific antibody recognizing the new C-terminus GELE^1480. Inhibition of cleavage was determined by scanning densitometry and the Ki values were determined (Table 1).
Digestions were carried out in 100 μl of 50 mM Tris/HCl buffer, pH 7.5, containing 100 mM NaCl and 10 mM CaCl2. Human recombinant ADAMTS-4/ADAMTS-5 were prepared as described (1, 2). Purified bovine aggrecan (12) (500 nM) was incubated with 5 nM ADAMTS-4/ADAMTS-5 at 37° C. for 2 hours, in the absence or presence of each of the hydroxamates described above, at concentrations ranging from […]. Following the incubation, cleavage of aggrecan at the Glu^1480-^1481Gly bond was monitored by Western Blot analysis, using the neoepitope antibody that recognizes the new C-terminus GELE^1480, as previously described (12).

[4] = molecular target: stromelysin MMP-3 (Homo sapiens, UniProt P08254); experiment: Inhibition of stromelysin MMP-3 by hydroxamic acids; format: biochemical; details: for Ki: Ki = IC50/(1 + [S]/Km), read-out: Apparent Ki stromelysin MMP-3
[5] = system: Pig articular cartilage explants; experiment: IL-1 induced aggrecan degradation in pig articular cartilage explants (GAG release, DMMB assay); format: cell-based; details: 72 hours; for IC50: Sus scrofa, pig explants, IL-1α, inhibitor 0.1 to 10 μM
Procedure: (§1) The same compounds were tested for the ability to block aggrecan cleavage in an in vitro model of cartilage degradation. Pig articular cartilage explants were cultured for 72 hours in the presence of IL-α, with or without one of the inhibitors at a concentration range og 0.1 to 10 μM. Culture media were assessed for the level of glycosaminoglycan chains (GAG) by dimethyl methylene blue (DMMB) assay, as a measure of aggrecan breakdown and IC50 values were calculated (Table 1). […] Therefore, we tested JWD40 for its ability to prevent aggrecan degradation in osteoarthritic (OA) cartilage. Human OA cartilage explants were cultured with or without JWD40, 0.1 to 10 μM. After 48 hours, media were analyzed for the presence of aggrecan products generated by cleavage by aggrecanase, containing the new N-terminus ^374ARGSV.
Articular cartilage was dissected from the knees of young pigs. Cartilage was allowed to equilibrate for 3 days in DMEM supplemented with 10% FCS, penicillin (100 U/ml) and streptomycin (100 μg/ml). Subsequently, cartilage was cut into 3×3 mm explants, weighing approximately 10-20 mg each, and incubated in 96-well plates for 72 hours with either control medium (serum-free DMEM),ml), IL-1α (100 ng/ml), or IL-1α (100 ng/ml) plus a series of hydroxamic acids at a concentration range of 0.1 μM to 10 μM. At the end of the culture period, glycosaminoglycan (GAG) levels in the culture media were determined by dimethylmethylene blue (DMMB) assay, as described by Farndale et al (13).

[6] = molecular target: T2, gelatinase MMP-2 (Homo sapiens, UniProt P08253); experiment: Inhibition of gelatinase MMP-2 by hydroxamic acids; format: biochemical; details: for Ki: Ki = IC50/(1 + [S]/Km), read-out: Apparent Ki gelatinase MMP-2
T2 sequence (P08253 110-660): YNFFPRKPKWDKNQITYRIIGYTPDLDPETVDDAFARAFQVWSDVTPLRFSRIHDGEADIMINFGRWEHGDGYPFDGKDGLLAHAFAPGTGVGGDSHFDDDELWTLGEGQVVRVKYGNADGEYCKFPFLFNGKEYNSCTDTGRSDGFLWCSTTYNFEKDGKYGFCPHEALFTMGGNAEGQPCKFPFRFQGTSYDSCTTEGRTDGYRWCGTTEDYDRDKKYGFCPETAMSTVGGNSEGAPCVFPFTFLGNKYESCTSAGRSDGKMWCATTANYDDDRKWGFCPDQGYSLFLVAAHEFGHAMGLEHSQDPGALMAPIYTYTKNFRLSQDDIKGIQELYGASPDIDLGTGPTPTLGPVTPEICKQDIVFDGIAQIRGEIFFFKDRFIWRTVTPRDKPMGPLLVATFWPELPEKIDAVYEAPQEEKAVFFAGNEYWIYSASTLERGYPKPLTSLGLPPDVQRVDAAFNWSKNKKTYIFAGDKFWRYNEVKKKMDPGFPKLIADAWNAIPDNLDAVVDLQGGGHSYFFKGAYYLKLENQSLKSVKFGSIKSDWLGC

[7] = system: Human OA cartilage explants; experiment: Aggrecanase-generated aggrecan fragment release from human osteoarthritic cartilage explants; format: cell-based; details: 0.1 to 10 μM, 48 hours
Procedure: as §1
Articular cartilage was dissected from the hips of patients with osteoarthritis at the time of joint replacement. Cartilage was allowed to equilibrate for 3 days in DMEM supplemented with penicillin (100 U/ml) and streptomycin (100 μg/ml). […] At the end of the culture period, the media were analyzed for aggrecan fragments generated by cleavage of aggrecan by aggrecanase, using a neoepitope that recognizes the new N-terminus […] (14).

[8] = compared with Ki against aggrecanase

stromelysin MMP-3, sequence (P08254 100-477): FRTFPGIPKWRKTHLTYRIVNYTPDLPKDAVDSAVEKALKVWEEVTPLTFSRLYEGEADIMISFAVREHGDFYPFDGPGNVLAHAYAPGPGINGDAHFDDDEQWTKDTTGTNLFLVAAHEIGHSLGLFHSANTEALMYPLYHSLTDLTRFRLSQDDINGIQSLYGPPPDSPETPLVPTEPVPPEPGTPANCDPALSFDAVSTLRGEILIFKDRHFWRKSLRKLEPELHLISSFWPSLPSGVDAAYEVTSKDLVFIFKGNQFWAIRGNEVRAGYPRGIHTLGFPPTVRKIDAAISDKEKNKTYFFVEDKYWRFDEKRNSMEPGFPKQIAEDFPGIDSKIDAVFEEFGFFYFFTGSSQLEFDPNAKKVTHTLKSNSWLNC

| Ki [2] [µM] | Ki [4] [µM] | Ki [6] [µM] | Potency against MMP-1 relative to aggrecanase [2, 8] | Potency against MMP-3 relative to aggrecanase [4, 8] | Potency against MMP-2 relative to aggrecanase [6, 8] | Molecule | Protection of aggrecan from cleavage by aggrecanase [1] | Ki [3] [µM] | IC50 [5] [µM] | Protection against IL-1 induced aggrecan degradation ([5]; pig articular cartilage explants) | Release of aggrecanase-generated fragment with N-terminus 374ARGSV [7] |
| --- | --- | --- | --- | --- | --- | --- | --- | --- | --- | --- | --- |
| 0.995 | > 1 | > 1 | – | – | – | CNC(=O)C(Cc1ccccc1)NC(=O)C(CC(=O)O)CC(C)C (stereo not shown) [JWD-18] | – | > 10 | > 100 | – | – |
| 0.026 | 0.125 | 0.036 | twofold less potent | a log less potency | twofold less potent | CNC(=O)[C@@H](NC(=O)[C@@H](CC(=O)NO)CC(C)C)C(C)C [JWD-40] | – | 0.017 | 2.05 | very effective | blocked the release of this fragment in a concentration-dependent manner |
| 0.076 | – | 0.059 | – | – | – | CNC(=O)C(C)NC(=O)C(CC(=O)NO)CC(C)C (stereo not shown) [JWD-52] | – | 0.035 | – | – | – |

The next lines start with the molecule.

| Molecule | Ki [2] [µM] | Ki [4] [µM] | Ki [6] [µM] | Potency against MMP-1 relative to aggrecanase [2, 8] | Potency against MMP-3 relative to aggrecanase [4, 8] | Potency against MMP-2 relative to aggrecanase [6, 8] | Protection of aggrecan from cleavage by aggrecanase [1] | Ki [3] [µM] | IC50 [5] [µM] | Protection against IL-1 induced aggrecan degradation ([5]; pig articular cartilage explants) | Release of aggrecanase-generated fragment with N-terminus 374ARGSV [7] |
| --- | --- | --- | --- | --- | --- | --- | --- | --- | --- | --- | --- |
| GGWGPWGPWGDCSRTCGGG | – | – | – | – | – | – | protects aggrecan from cleavage by aggrecanase | – | – | – | – |
| CNC(=O)C(CCc1ccccc1)NC(=O)C(CC(=O)NO)CC(C)C (stereo not shown) [JWC-97] | 0.0074 | 0.135 | 0.0023 | – | – | – | – | 0.062 | 1.8 | – | – |
| CNC(=O)C(Cc1ccc(OCc2ccccc2)cc1)NC(=O)C(CC(=O)NO)CC(C)C (stereo not shown) [JWC-100] | 0.001 | 0.0009 | < 0.0001 | – | – | – | – | 0.16 | 6 | – | – |
| CNC(=O)C(Cc1ccc(F)cc1)NC(=O)C(CC(=O)NO)CC(C)C (stereo not shown) [JWC-95] | 0.0059 | 0.065 | 0.0023 | – | – | – | – | 0.098 | 2.9 | – | – |
